Among the test systems are Malme-3M; CAKI-1; SNB-75; 786-0; NCI-H23; MDA-MB-435; SNB-19; DU-145; SK-MEL-2; HCT-116; HOP-92; LOX IMVI; MOLT-4; SW-620; ACHN; SK-MEL-28; SF-295; RPMI-8226; SF-539; HL-60.
Holding throughout (test): inhibition of tumour cell growth, NCI panel, 48 h

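Five compound concentrations were applied to cells in 96-well plates for 48 hours; endpoints were derived by simple linear interpolation of the resulting dose-response curve. GI50 marks 50% less growth.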 Active and inactive are the calls of the source. Cut-off read from the data, not from the text of the source: active = GI50 up to about 1.1 µM and inactive = higher. Residues, ends and D or L forms follow the SMILES beside them. *: point of attachment. Cbz = O=C(OCc1ccccc1)* Some results are limits rather than exact numbers.

In the case of `N=C(N)c1ccc(/C=C/c2ccc(C(=N)N)cc2)cc1`, the GI50 in the assay on Malme-3M was 53 µM (inactive); in the assay with CAKI-1 it was 94.6 µM (inactive); with SNB-75, 32.1 µM (inactive); in the assay on 786-0, 62.1 µM (inactive); in the assay with NCI-H23, 78.5 µM (inactive); with MDA-MB-435, > 100 µM (inactive). In addition, the GI50 is > 100 µM (inactive) with SNB-19; > 100 µM (inactive) in the assay on DU-145; 27.1 µM (inactive) in the assay with SK-MEL-2; > 100 µM (inactive) in the assay with HCT-116; > 100 µM (inactive) in the assay on HOP-92; > 100 µM (inactive) in the assay on LOX IMVI. Moreover, the GI50 in the assay on MOLT-4 was > 100 µM (inactive); in the assay with SW-620, 96.8 µM (inactive); with ACHN, > 100 µM (inactive); in the assay with SK-MEL-28 it was 45.8 µM (inactive); with SF-295 it was 34.4 µM (inactive).

For the compound `Oc1c(N2CCCCC2)cc(-c2cc(N3CCCCC3)c(O)c3ccccc23)c2ccccc12`, the GI50 with Malme-3M was 12 µM (inactive); in the assay on CAKI-1, > 100 µM (inactive); in the assay with RPMI-8226 it was 29.6 µM (inactive); with 786-0 it was 22.3 µM (inactive); in the assay with NCI-H23, 24.9 µM (inactive); in the assay with MDA-MB-435 it was 4.24 µM (inactive). The GI50 was 33.2 µM (inactive) in the assay with SF-539; 98.4 µM (inactive) in the assay with SNB-19; 23.4 µM (inactive) in the assay with DU-145; 25.2 µM (inactive) with SK-MEL-2; 19 µM (inactive) in the assay with HCT-116; 23.4 µM (inactive) in the assay with HOP-92. The GI50 is 25.1 µM (inactive) with LOX IMVI; 27.7 µM (inactive) with HL-60; 22.9 µM (inactive) in the assay on MOLT-4; 29.3 µM (inactive) in the assay with SW-620; 49.1 µM (inactive) in the assay on ACHN; 19.9 µM (inactive) in the assay with SK-MEL-28. For the same compound, the GI50 in the assay on SF-295 is 41.2 µM (inactive).

Turning to `COc1ccc(OC)c2c1C=CC(Br)=CC2`, the GI50 in the assay on Malme-3M was 0.145 µM (active); in the assay on CAKI-1, 0.269 µM (active); in the assay on RPMI-8226 it was 0.162 µM (active); in the assay with 786-0 it was 0.193 µM (active); with NCI-H23 it was 0.259 µM (active); with MDA-MB-435, 0.239 µM (active). In addition, the GI50 in the assay on SF-539 was 0.653 µM (active); with SNB-19 it was 0.611 µM (active); in the assay with DU-145, 0.975 µM (active); with SK-MEL-2 it was 0.106 µM (active); with HCT-116, 0.232 µM (active); with HOP-92, 0.148 µM (active). In addition, the GI50 with LOX IMVI was 0.158 µM (active); in the assay on MOLT-4 it was 0.144 µM (active); in the assay on SW-620, 0.234 µM (active); with ACHN, 0.312 µM (active); in the assay with SK-MEL-28, 0.35 µM (active); with SF-295 it was 0.16 µM (active).

For `CC(C)CC(C#CCCOC(=O)c1ccccc1)OC(=O)c1ccccc1` (configuration not stated), the GI50 in the assay with Malme-3M is > 10 µM (inactive); in the assay with SNB-75, 0.445 µM (active); with 786-0, > 10 µM (inactive); in the assay on NCI-H23 it was > 10 µM (inactive); in the assay on MDA-MB-435, > 10 µM (inactive); with SF-539, > 10 µM (inactive). For the same compound, the GI50 with SNB-19, in the assay on DU-145, with SK-MEL-2, with HCT-116, in the assay on HOP-92 and in the assay on LOX IMVI was > 10 µM (inactive) in each case. In addition, the GI50 in the assay on HL-60, in the assay on MOLT-4, with SW-620, in the assay on ACHN, in the assay on SK-MEL-28 and with SF-295 was > 10 µM (inactive) in each case.

As to `CCOc1ccc2ccccc2c1NC1=NCCO1`, the GI50 in the assay with Malme-3M was 39.5 µM (inactive); in the assay with RPMI-8226, 19.5 µM (inactive); with SNB-75, 34.6 µM (inactive); in the assay on 786-0, > 100 µM (inactive); in the assay on NCI-H23, 28.8 µM (inactive); in the assay with MDA-MB-435, 25.8 µM (inactive). Further, the GI50 with SF-539 is 49.3 µM (inactive); in the assay on SNB-19 it was 29.6 µM (inactive); in the assay with DU-145, > 100 µM (inactive); in the assay on HCT-116, 36.9 µM (inactive); with HOP-92, 15.3 µM (inactive); in the assay with HL-60 it was 19.9 µM (inactive). For the same compound, the GI50 was 27.5 µM (inactive) with MOLT-4; 46.1 µM (inactive) with SW-620; 20.6 µM (inactive) in the assay on ACHN; > 100 µM (inactive) in the assay on SK-MEL-28; 19.1 µM (inactive) in the assay with SF-295.

Regarding `O=c1c2ccc(Cl)cc2oc2c(CNc3ccc(S(=O)(=O)Nc4nccs4)cc3)cccc12`, the GI50 in the assay with Malme-3M is > 100 µM (inactive); in the assay with CAKI-1, 0.951 µM (active); with RPMI-8226 it was > 100 µM (inactive); in the assay on 786-0, > 100 µM (inactive); in the assay on NCI-H23, > 100 µM (inactive); in the assay on MDA-MB-435 it was > 100 µM (inactive). Also, the GI50 with SF-539 was 99.1 µM (inactive); with SNB-19, > 100 µM (inactive); in the assay on DU-145, > 100 µM (inactive); in the assay on SK-MEL-2, > 100 µM (inactive); in the assay with HCT-116, > 100 µM (inactive); in the assay with HOP-92, 31.2 µM (inactive). In addition, the GI50 in the assay with LOX IMVI, in the assay on MOLT-4, in the assay on SW-620, in the assay on ACHN, in the assay with SK-MEL-28 and with SF-295 was > 100 µM (inactive) in each case.

In the case of `C1=C2C3=[N+](CCCC3)CC2Cc2sccc21` (configuration not stated), the GI50 in the assay on Malme-3M is 49.1 µM (inactive); in the assay on CAKI-1 it was > 100 µM (inactive); in the assay with SNB-75, > 100 µM (inactive); in the assay with 786-0 it was > 100 µM (inactive); in the assay with NCI-H23, > 100 µM (inactive); with MDA-MB-435 it was > 100 µM (inactive). Moreover, the GI50 was 86.9 µM (inactive) with SNB-19; > 100 µM (inactive) in the assay with DU-145; > 100 µM (inactive) with SK-MEL-2; > 100 µM (inactive) in the assay on HCT-116; 99.8 µM (inactive) with HOP-92; > 100 µM (inactive) with LOX IMVI. Moreover, the GI50 in the assay on HL-60 is > 100 µM (inactive); in the assay on MOLT-4 it was > 100 µM (inactive); in the assay with SW-620, > 100 µM (inactive); in the assay on ACHN it was > 100 µM (inactive); in the assay on SK-MEL-28 it was > 100 µM (inactive); in the assay with SF-295 it was 66.5 µM (inactive).

For `COc1cccc(-c2ccc3c4c2O[C@H]2c5[nH]c6ccccc6c5C[C@@]5(O)[C@@H](C3)N(CC3CC3)CC[C@]425)c1`, the GI50 in the assay with Malme-3M is 1.5 µM (inactive); with CAKI-1, 2.1 µM (inactive); in the assay with RPMI-8226 it was 2.18 µM (inactive); in the assay with 786-0 it was 1.7 µM (inactive); in the assay with NCI-H23, 2.21 µM (inactive); with MDA-MB-435, 1.77 µM (inactive). Moreover, the GI50 in the assay on SF-539 was 1.78 µM (inactive); in the assay on SNB-19 it was 2.05 µM (inactive); in the assay with DU-145, 2.54 µM (inactive); with SK-MEL-2, 1.69 µM (inactive); in the assay on HCT-116, 1.63 µM (inactive); in the assay on HOP-92, 1.37 µM (inactive). For the same compound, the GI50 in the assay on LOX IMVI was 1.72 µM (inactive); in the assay on HL-60, 1.38 µM (inactive); with MOLT-4, 0.82 µM (active); in the assay on SW-620, 1.93 µM (inactive); in the assay with ACHN, 1.63 µM (inactive); with SF-295, 1.71 µM (inactive).

As to `C[C@H](CCC(=O)NCCS(=O)(=O)O)[C@H]1CC[C@H]2[C@@H]3[C@H](O)C[C@@H]4C[C@H](O)CC[C@]4(C)[C@H]3CC[C@]12C`, the GI50 in the assay on Malme-3M, in the assay on CAKI-1, in the assay with RPMI-8226, with 786-0, in the assay on NCI-H23 and in the assay on MDA-MB-435 was > 100 µM (inactive) in each case. Moreover, the GI50 with SF-539, with SNB-19, with DU-145, in the assay with SK-MEL-2, with HCT-116 and in the assay with HOP-92 was > 100 µM (inactive) each time. The GI50 in the assay on LOX IMVI, in the assay with HL-60, with MOLT-4, with SW-620, with ACHN and in the assay with SK-MEL-28 was > 100 µM (inactive) throughout. Besides, the GI50 in the assay with SF-295 is > 100 µM (inactive).

On to `O=S(=O)(O)c1cccc2c(/N=N/c3c(O)ccc4ccccc34)cccc12`, for which the GI50 in the assay on Malme-3M, in the assay on CAKI-1, in the assay on RPMI-8226, in the assay on SNB-75, with 786-0 and with NCI-H23 was > 100 µM (inactive) throughout. The GI50 with MDA-MB-435, with SNB-19, with DU-145, in the assay on SK-MEL-2, in the assay on HCT-116 and with HOP-92 was > 100 µM (inactive) in each case. Besides, the GI50 with LOX IMVI, in the assay with MOLT-4, in the assay with SW-620, with ACHN, in the assay on SK-MEL-28 and in the assay with SF-295 was > 100 µM (inactive) in each case.

`CC(NC(=O)C(NC(=O)OCc1ccccc1)C(C)C)C(=O)NCC(=O)O` (stereo not drawn) (Cbz-Val-Ala-Gly-OH; configuration not given here): the GI50 with Malme-3M, in the assay on CAKI-1, in the assay on RPMI-8226, with 786-0, in the assay with NCI-H23 and with MDA-MB-435 was > 100 µM (inactive) each time. Also, the GI50 in the assay on SF-539, in the assay with SNB-19, with DU-145, in the assay on SK-MEL-2, in the assay on HCT-116 and with HOP-92 was > 100 µM (inactive) in each case. The GI50 in the assay with MOLT-4, in the assay with SW-620, in the assay on ACHN, in the assay with SK-MEL-28 and with SF-295 was > 100 µM (inactive) each time.

The values are drawn from ChEMBL document CHEMBL1201862, “PubChem BioAssay data set” (2004).
